Laboratory results as given in patent publication US20110046107A1, “SULFONYL-SUBSTITUTED CARBAPENEM COMPOUNDS” (priority 2007, published 2011).
Converted amounts (≈) assume the structure as drawn. Read-outs that look alike come from different tables or passages of the source.

How the values were obtained:
Assay in all cases: In vitro antibacterial activity, agar dilution method (clinical isolates)
Type in all cases: cell-based
Hemophilus influenza = conditions: read-out: MIC90 Hemophilus influenza
Description: (§1) Bacterial strains for test: All the bacterial strains are clinical isolates and purchased from public organizations. methicillin-sensitive staphylococcus aureus (MS SA), methicillin-resistant staphylococcus aureus (MRSA), methicillin-sensitive staphylococcus epidermidis (MSSE), methicillin-resistant staphylococcus epidermidis (MRSE), streptococcus pyogenes, penicillin-sensitive streptococcus pneumoniae (PSSP), penicillin-resistant streptococcus pneumoniae (PRSP), Escherichia coli, Citrobacter freundii, Enterobacter cloacae, Hemophilus influenza, Klebsiella pneumonia (producing ESBL), Morganella morganii, Proteus mirabilis, Serratia marcescens, and Pseudomonas aeruginosa.
(§2) Drugs to be tested: compounds of the invention prepared in the examples; the chemical names, structural formulae, preparation materials, and preparation methods are provided in the preparation examples of the compounds;
(§3) Meropenem (Meropenem for injection), Ertapenem (Ertapenem for injection), and Doripenem (Doripenem for injection) commercially available
(§4) Experimental method: the agar dilution method, by reference to Methodology of Pharmacological Experiment (XU Shuyun et al, published by the Peoples Medical Publishing House, 1st Edition, August, 1982; 3rd Edition, 5th printing, January 2002, p 1659-1660).

[1] = tested on: methicillin-sensitive staphylococcus aureus (MSSA); conditions: read-out: MIC90 S. aureus MSSA
Description: as §1, §2, §3, §4

Pseudomonas aeruginosa = conditions: clinically isolated strains, Gram-negative
Description: as §1, §2, §3, §4

[2] = tested on: methicillin-resistant staphylococcus aureus (MRSA); conditions: clinically isolated strains, Gram-positive, read-out: MIC90 S. aureus MRSA
Description: as §1, §2, §3, §4

[3] = tested on: penicillin-resistant streptococcus pneumoniae (PRSP); conditions: clinically isolated strains, Gram-positive, read-out: MIC90 S. pneumoniae PRSP
Description: as §1, §2, §3, §4

Citrobacter freundii = conditions: clinically isolated strains, Gram-negative
Description: as §1, §2, §3, §4

[4] = tested on: Klebsiella pneumonia (producing ESBL); conditions: Klebsiella pneumoniae, read-out: MIC90 Klebsiella pneumonia
Description: as §1, §2, §3, §4

streptococcus pyogenes = conditions: clinically isolated strains, Gram-positive, read-out: MIC90 S. pyogenes
Description: as §1, §2, §3, §4

[5] = tested on: methicillin-sensitive staphylococcus epidermidis (MSSE); conditions: read-out: MIC90 S. epidermidis MSSE
Description: as §1, §2, §3, §4

Serratia marcescens = conditions: read-out: MIC90 Serratia marcescens
Description: as §1, §2, §3, §4

Escherichia coli = conditions: clinically isolated strains, Gram-negative, read-out: MIC90 E. coli
Description: as §1, §2, §3, §4

[6] = tested on: penicillin-sensitive streptococcus pneumoniae (PSSP); conditions: clinically isolated strains, Gram-positive, read-out: MIC90 S. pneumoniae PSSP
Description: as §1, §2, §3, §4

Morganella morganii = conditions: clinically isolated strains, Gram-negative
Description: as §1, §2, §3, §4

Enterobacter cloacae = conditions: read-out: MIC90 Enterobacter cloacae
Description: as §1, §2, §3, §4

[7] = tested on: methicillin-resistant staphylococcus epidermidis (MRSE); conditions: clinically isolated strains, Gram-positive, read-out: MIC90 S. epidermidis MRSE
Description: as §1, §2, §3, §4

Proteus mirabilis = conditions: read-out: MIC90 Proteus mirabilis
Description: as §1, §2, §3, §4

[8] = clinically isolated strains, Gram-positive, agar dilution
[9] = clinically isolated strains, Gram-negative, agar dilution
[10] = clinically isolated strains (producing ESBL), Gram-negative, agar dilution

Row | Compound | MIC90 [1, 8] [µg/mL] | MIC90 (Pseudomonas aeruginosa) [µg/mL] | MIC90 [2] [µg/mL] | MIC90 [3] [µg/mL] | MIC90 (Citrobacter freundii) [µg/mL] | MIC90 (streptococcus pyogenes) [µg/mL] | MIC90 [5, 8] [µg/mL] | MIC90 (Serratia marcescens) [µg/mL] | MIC90 (Escherichia coli) [µg/mL] | MIC90 [6] [µg/mL] | MIC90 (Morganella morganii) [µg/mL] | MIC90 (Enterobacter cloacae) [µg/mL] | MIC90 [7] [µg/mL] | MIC90 (Proteus mirabilis; [9]) [µg/mL] | MIC90 (Hemophilus influenza; [9]) [µg/mL] | MIC90 [4, 10] [µg/mL] | MIC90 (Serratia marcescens; [9]) [µg/mL] | MIC90 (Enterobacter cloacae; [9]) [µg/mL] | other results
1 | C[C@@H](O)[C@H]1C(=O)N2C(C(=O)O)=C(S[C@H]3CCN(S(N)(=O)=O)C3)[C@H](C)[C@H]12 [Compound 2, (4R,5S,6S)-3-[(3S)-N-aminosulfonyl-pyrrolidin-3-yl]thio-6-[(1R)-1-hydroxyethyl]-4-methyl-7-oxo-1-aza-bicyclo-[3.2.0]hept-2-ene-2-carboxylic acid] | 0.063 (≈ 0.161 µM) | 8 (≈ 20.4 µM) | 16 (≈ 40.9 µM) | 0.5 (≈ 1.28 µM) | 0.032 (≈ 0.0817 µM) | 0.008 (≈ 0.0204 µM) | 0.063 (≈ 0.161 µM) | 0.125 (≈ 0.319 µM) | 0.016 (≈ 0.0409 µM) | 0.016 (≈ 0.0409 µM) | 0.063 (≈ 0.161 µM) | 0.125 (≈ 0.319 µM) | 8 (≈ 20.4 µM) | 0.63 (≈ 1.61 µM) | – | – | – | – | MIC90 (Hemophilus influenza): 0.125 µg/mL (≈ 0.319 µM); MIC90 [4]: 0.125 µg/mL (≈ 0.319 µM)
2 | C[C@@H](O)[C@H]1C(=O)N2C(C(=O)O)=C(SC3CCCN(S(N)(=O)=O)C3)[C@H](C)[C@H]12 (stereo partly drawn) [Compound 3, (4R,5S,6S)-3-[N-aminosulfonyl-piperidin-3-yl]thio-6-[(1R)-1-hydroxyethyl]-4-methyl-7-oxo-1-aza-bicyclo-[3.2.0]hept-2-ene-2-carboxylic acid] | 0.125 (≈ 0.308 µM) | 16 (≈ 39.5 µM) | 16 (≈ 39.5 µM) | 0.5 (≈ 1.23 µM) | 0.063 (≈ 0.155 µM) | 0.008 (≈ 0.0197 µM) | 0.125 (≈ 0.308 µM) | – | 0.032 (≈ 0.0789 µM) | 0.016 (≈ 0.0395 µM) | 0.032 (≈ 0.0789 µM) | – | 8 (≈ 19.7 µM) | 0.125 (≈ 0.308 µM) | 0.25 (≈ 0.617 µM) | 0.063 (≈ 0.155 µM) | 0.125 (≈ 0.308 µM) | 0.125 (≈ 0.308 µM) | –
3 | C[C@@H](O)[C@H]1C(=O)N2C(C(=O)O)=C(SC3CN=CN(S(N)(=O)=O)C3)[C@H](C)[C@H]12 (stereo partly drawn) [Compound 4, (4R,5S,6S)-3-[1(4H)-aminosulfonyl-5,6-dihydropyrimidin-5-yl]-thio-6-[(1R)-1-hydroxyethyl]-4-methyl-7-oxo-1-aza-bicyclo-[3.2.0]hept-2-ene-2-carboxylic acid] | – | 32 (≈ 79.1 µM) | 8 (≈ 19.8 µM) | 1 (≈ 2.47 µM) | 0.032 (≈ 0.0791 µM) | 0.016 (≈ 0.0396 µM) | 0.063 (≈ 0.156 µM) | 0.125 (≈ 0.309 µM) | 0.032 (≈ 0.0791 µM) | 0.016 (≈ 0.0396 µM) | 0.063 (≈ 0.156 µM) | 0.125 (≈ 0.309 µM) | 16 (≈ 39.6 µM) | – | 0.125 (≈ 0.309 µM) | 0.063 (≈ 0.156 µM) | – | – | MIC90 [1]: 0.125 µg/mL (≈ 0.309 µM); MIC90 (Proteus mirabilis): 0.125 µg/mL (≈ 0.309 µM)
4 | C[C@@H](O)[C@H]1C(=O)N2C(C(=O)O)=C(SC3CNCN(S(N)(=O)=O)C3)[C@H](C)[C@H]12 (stereo partly drawn) [Compound 5, (4R,5S,6S)-3-[1(2H)-aminosulfonyl-tetrahydropyrimidin-5-yl]-thio-6-[(1R)-1-hydroxyethyl]-4-methyl-7-oxo-1-aza-bicyclo-[3.2.0]hept-2-ene-2-carboxylic acid] | 0.25 (≈ 0.615 µM) | 16 (≈ 39.4 µM) | 16 (≈ 39.4 µM) | 1 (≈ 2.46 µM) | 0.032 (≈ 0.0787 µM) | 0.016 (≈ 0.0394 µM) | – | – | 0.032 (≈ 0.0787 µM) | 0.016 (≈ 0.0394 µM) | 0.063 (≈ 0.155 µM) | – | 16 (≈ 39.4 µM) | 0.063 (≈ 0.155 µM) | 0.125 (≈ 0.308 µM) | – | 0.063 (≈ 0.155 µM) | 0.25 (≈ 0.615 µM) | MIC90 [4]: 0.125 µg/mL (≈ 0.308 µM); MIC90 [5]: 0.125 µg/mL (≈ 0.308 µM)
5 | CCN(CC)S(=O)(=O)N1CC(SC2=C(C(=O)O)N3C(=O)[C@H]([C@@H](C)O)[C@H]3[C@H]2C)C1 [Compound 7, (4R,5S,6S)-3-[1-(N,N-diethylaminosulfonyl)-azetidin-3-yl]thio-6-[(1R)-1-hydroxyethyl]-4-methyl-7-oxo-1-aza-bicyclo-[3.2.0]hept-2-ene-2-carboxylic acid] | 0.063 (≈ 0.145 µM) | 8 (≈ 18.5 µM) | 8 (≈ 18.5 µM) | 0.5 (≈ 1.15 µM) | 0.016 (≈ 0.0369 µM) | 0.004 (≈ 0.00923 µM) | 0.063 (≈ 0.145 µM) | – | 0.016 (≈ 0.0369 µM) | 0.008 (≈ 0.0185 µM) | 0.063 (≈ 0.145 µM) | 0.125 (≈ 0.288 µM) | 8 (≈ 18.5 µM) | – | 0.125 (≈ 0.288 µM) | 0.063 (≈ 0.145 µM) | 0.063 (≈ 0.145 µM) | – | MIC90 (Proteus mirabilis): 0.125 µg/mL (≈ 0.288 µM)
6 | C[C@@H](O)[C@H]1C(=O)N2C(C(=O)O)=C(SC3CN(S(=O)(=O)NCC(N)=O)C3)[C@H](C)[C@H]12 [Compound 10] | 0.063 (≈ 0.145 µM) | 8 (≈ 18.4 µM) | 8 (≈ 18.4 µM) | 5 (≈ 11.5 µM) | 0.032 (≈ 0.0736 µM) | 0.008 (≈ 0.0184 µM) | 0.063 (≈ 0.145 µM) | – | 0.008 (≈ 0.0184 µM) | 0.008 (≈ 0.0184 µM) | 0.016 (≈ 0.0368 µM) | 0.125 (≈ 0.288 µM) | 16 (≈ 36.8 µM) | 0.063 (≈ 0.145 µM) | 0.125 (≈ 0.288 µM) | 0.063 (≈ 0.145 µM) | 0.063 (≈ 0.145 µM) | – | –
7 | C[C@@H](O)[C@H]1C(=O)N2C(C(=O)O)=C(S[C@@H]3CN[C@H](C(=O)Nc4cccc(C(=O)O)c4)C3)[C@H](C)[C@H]12 [ertapenem, Ertapenem, reference compound] | 0.5 (≈ 1.05 µM) | 32 (≈ 67.3 µM) | > 64 | 2 (≈ 4.21 µM) | 0.25 (≈ 0.526 µM) | 0.032 (≈ 0.0673 µM) | 0.5 (≈ 1.05 µM) | – | 0.25 (≈ 0.526 µM) | 0.063 (≈ 0.132 µM) | 0.25 (≈ 0.526 µM) | – | 64 (≈ 135 µM) | 1 (≈ 2.1 µM) | 1 (≈ 2.1 µM) | 1 (≈ 2.1 µM) | 0.5 (≈ 1.05 µM) | 2 (≈ 4.21 µM) | –
8 | C[C@@H](O)[C@H]1C(=O)N2C(C(=O)[O-])=C(SC3CN(S(=O)(=O)NCC(O)CN)C3)[C@H](C)[C@H]12.[Na+] (some centres unmarked) [sodium salt of compound 9] | 0.032 | 16 | 16 | 0.5 | 0.032 | 0.008 | 0.063 | 0.125 | 0.016 | 0.008 | 0.032 | – | 8 | 0.63 | – | 0.063 | – | 0.063 | MIC90 (Hemophilus influenza): 0.125 µg/mL
